Measurements published in PMC11491004, “CHF6523 data suggest that the phosphoinositide 3-kinase delta isoform is not a suitable target for the management of COPD” (Respiratory Research, 2024).

Key:
[1] = tested on: target biomarkers in sputum; assay: Target biomarkers of inflammation in induced sputum; format: in vivo, human; conditions: p < 0.05; with the exception of IL-5
Experimental: All assessment timings were based on the morning dose. Pre-dose on Days 1 and 28 of each treatment period, blood samples were taken for pharmacokinetic analyses, followed by forced oscillation (including slow vital capacity manoeuvres for inspiratory capacity [IC] and vital capacity [VC]), spirometry (forced expiratory volume in 1 s [FEV1] and forced vital capacity [FVC]), and the COPD Assessment Test (CAT). Blood samples were also taken up to 12 h post-dose on Days 1 and 28 for pharmacokinetic analyses, with blood samples for biomarker assessment pre-dose on Day 1 and 2 h post-dose on Day 28, and spirometry pre-dose on Days 20 and 24. […]
Fold-change from baseline in cell counts, target biomarkers in sputum and blood, and PIP3 were log-transformed and analysed using an analysis of covariance (ANCOVA) model, with treatment, patient, and period as fixed effects, and baseline value as covariate. Changes from baseline in spirometry, forced oscillation and CAT endpoints were analysed using a similar ANCOVA model, but without log transformation. Rescue medication data were analysed using an analysis of variance model, including treatment, period and patient as fixed effects. […]

[2] = COPD Assessment Test and rescue medication use; format: in vivo, human
Experimental: (§1) All assessment timings were based on the morning dose. Pre-dose on Days 1 and 28 of each treatment period, blood samples were taken for pharmacokinetic analyses, followed by forced oscillation (including slow vital capacity manoeuvres for inspiratory capacity [IC] and vital capacity [VC]), spirometry (forced expiratory volume in 1 s [FEV1] and forced vital capacity [FVC]), and the COPD Assessment Test (CAT). Blood samples were also taken up to 12 h post-dose on Days 1 and 28 for pharmacokinetic analyses, with blood samples for biomarker assessment pre-dose on Day 1 and 2 h post-dose on Day 28, and spirometry pre-dose on Days 20 and 24. Sputum was induced prior to each treatment period for baseline determination of biomarkers, and post-dose on Day 20 for collection of phosphatidylinositol (3,4,5)-trisphosphate (PIP3), and on Days 24 and 28 for collection of biomarkers.
(§2) Fold-change from baseline in cell counts, target biomarkers in sputum and blood, and PIP3 were log-transformed and analysed using an analysis of covariance (ANCOVA) model, with treatment, patient, and period as fixed effects, and baseline value as covariate. Changes from baseline in spirometry, forced oscillation and CAT endpoints were analysed using a similar ANCOVA model, but without log transformation. Rescue medication data were analysed using an analysis of variance model, including treatment, period and patient as fixed effects. Other data, including the proportion of days on which patients coughed and the cough VAS results, are presented descriptively only. Further details, including the transcriptomics, mass-spectrometry and Olink proteomics, bioinformatics and multi-omic data integration are in the supplement.

[3] = CHF6523 plasma pharmacokinetics in patients with COPD; format: in vivo, human; conditions: for AUC0–30 min / AUC0–12 h / Cmax: 2 mg twice daily inhaled
Experimental: as §1
Pharmacokinetic assessments were performed under fasting conditions. On days when pharmacokinetic samples were taken, study drug was administered in the morning at the clinical site after a fast of ≥ 10 h (water was allowed), with food or fluid intake not allowed until 1 h post-dose, with the exception of 100 mL of water if the patient coughed as a result of inhalation. Starting from 1 h post-dose and for the following 6 h, patients drank ≥ 240 mL of water every 2 h, with breakfast and lunch served approximately 3 and 5 h after morning study drug, and, on Day 1, dinner at least 2 h before or 1 h after evening drug administration. No intake of alcohol, grapefruit, or xanthine/caffeine containing beverages or food was allowed from 48 h prior to each intake of study medication and until the last visit procedure, with strenuous exercise prohibited for 24 h before any spirometry measurement.
Blood samples of 2 mL were collected in K2-EDTA tubes at pre-dose and at 10, 15, 30, and 45 min and 1, 1½, 2, 3, 4, 6, 8 and 12 h post-dose on Days 1 and 28, and pre-dose on Days 20 and 24. Collected samples were centrifuged within 1 h after blood in a refrigerated centrifuge (at about +4°C) at about 2000 x g for 10 min. The plasma obtained was transferred into two polypropylene tubes (at least 500 μL into the first, and the remaining volume into the second), then stored at or below –80°C, at the clinical centre. The tubes were then transferred (frozen) to a central laboratory, and stored at –80°C until submitted for analysis with a validated liquid chromatography with tandem mass spectrometry (LC/MS-MS) method. Two validated methods were used to cover the range of possible concentrations. The first one, the so-called low-range method, measured CHF6523 over the calibration range 0.02–1.00 ng/mL. The second, the high-range method, measured CHF6523 over the calibration range 1.00–50.0 ng/mL. Overall, the lower limit of quantification in this study (LLoQ) was of 0.02 ng/mL.

[4] = target: PI3Kδ (Homo sapiens, UniProt O00329); assay: Target engagement: PIP3 in induced sputum; format: in vivo; design: from tissue; host or cells: induced sputum of COPD patients (in vivo dosing by inhalation)
Experimental: as §1, §2

[5] = Spirometry (pre-dose FEV1 and FVC); format: in vivo, human
Experimental: as §1, §2

Sequence of PI3Kδ (O00329 whole entry): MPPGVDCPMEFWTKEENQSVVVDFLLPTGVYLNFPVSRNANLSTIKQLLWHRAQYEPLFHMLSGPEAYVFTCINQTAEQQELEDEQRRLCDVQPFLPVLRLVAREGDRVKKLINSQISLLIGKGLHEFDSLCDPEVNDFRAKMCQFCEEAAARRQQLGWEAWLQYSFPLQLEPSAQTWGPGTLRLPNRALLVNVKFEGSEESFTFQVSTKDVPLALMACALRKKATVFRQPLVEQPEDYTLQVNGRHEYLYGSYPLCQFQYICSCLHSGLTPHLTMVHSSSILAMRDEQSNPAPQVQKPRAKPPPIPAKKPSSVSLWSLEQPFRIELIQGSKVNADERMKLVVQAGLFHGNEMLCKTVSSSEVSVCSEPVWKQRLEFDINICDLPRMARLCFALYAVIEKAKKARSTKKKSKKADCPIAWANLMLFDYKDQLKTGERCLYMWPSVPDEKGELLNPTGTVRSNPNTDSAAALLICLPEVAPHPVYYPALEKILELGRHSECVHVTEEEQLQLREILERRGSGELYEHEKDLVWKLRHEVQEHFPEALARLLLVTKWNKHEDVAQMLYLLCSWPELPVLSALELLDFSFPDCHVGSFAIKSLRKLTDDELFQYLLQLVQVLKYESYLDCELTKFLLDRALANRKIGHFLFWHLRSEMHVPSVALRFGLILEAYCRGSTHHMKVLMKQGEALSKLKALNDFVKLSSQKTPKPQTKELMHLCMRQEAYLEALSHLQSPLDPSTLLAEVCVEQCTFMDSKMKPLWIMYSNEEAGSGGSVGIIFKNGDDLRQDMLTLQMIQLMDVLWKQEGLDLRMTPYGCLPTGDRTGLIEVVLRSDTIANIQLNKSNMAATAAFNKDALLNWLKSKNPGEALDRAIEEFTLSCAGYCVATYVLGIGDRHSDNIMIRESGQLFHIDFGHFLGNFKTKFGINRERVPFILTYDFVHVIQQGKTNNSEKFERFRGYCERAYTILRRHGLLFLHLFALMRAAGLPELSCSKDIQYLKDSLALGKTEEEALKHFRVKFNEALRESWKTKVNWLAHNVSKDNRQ
Sequence of PI3Kδ (P27986 whole entry partner): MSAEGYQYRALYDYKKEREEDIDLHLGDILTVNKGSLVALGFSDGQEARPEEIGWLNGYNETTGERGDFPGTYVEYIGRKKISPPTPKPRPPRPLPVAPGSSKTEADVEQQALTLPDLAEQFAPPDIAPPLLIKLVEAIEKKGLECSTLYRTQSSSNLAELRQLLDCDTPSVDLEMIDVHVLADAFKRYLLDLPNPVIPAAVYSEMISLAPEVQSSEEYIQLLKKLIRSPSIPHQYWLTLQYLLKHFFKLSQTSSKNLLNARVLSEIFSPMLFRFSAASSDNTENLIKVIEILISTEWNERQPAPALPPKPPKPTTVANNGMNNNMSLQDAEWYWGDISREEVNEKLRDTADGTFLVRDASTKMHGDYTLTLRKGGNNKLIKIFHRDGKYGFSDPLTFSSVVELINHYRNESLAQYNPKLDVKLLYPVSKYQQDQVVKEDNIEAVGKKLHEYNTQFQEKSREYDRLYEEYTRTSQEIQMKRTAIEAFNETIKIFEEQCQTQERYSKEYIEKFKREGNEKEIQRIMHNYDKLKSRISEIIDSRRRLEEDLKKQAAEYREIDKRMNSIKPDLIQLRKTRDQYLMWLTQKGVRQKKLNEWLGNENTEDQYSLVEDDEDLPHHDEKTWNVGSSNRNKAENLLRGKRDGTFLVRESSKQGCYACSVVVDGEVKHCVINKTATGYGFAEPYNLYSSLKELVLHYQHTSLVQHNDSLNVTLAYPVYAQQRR

Question: Which “CHF6523–placebo differences in target biomarkers in sputum” value [1] does the source give for `C[C@@H](c1oc(=O)c2ccccc2c1-c1cccc(CN2CCN(C)CC2)c1)n1nc(-c2cncc(O)c2)c2c(N)ncnc21` [CHF6523] here?
Answer: no statistically significant

Question: And the “Rescue medication use, adjusted mean (95% CI)” value ([2]; 28-day treatment period)?
Answer: 1.69 (1.40, 1.99) Puffs/day

Question: And the “Rescue medication use, adjusted mean difference CHF6523 vs placebo (95% CI)” value ([2]; 28-day treatment period)?
Answer: 0.28 (–0.14, 0.70); p=0.190 Puffs/day

Question: And the “Rescue medication use: days with no use, adjusted mean (95% CI)” value ([2]; 28-day treatment period)?
Answer: 49.0 (40.3, 57.7) %

Question: And the “Rescue medication use: days with no use, adjusted mean difference CHF6523 vs placebo (95% CI)” value ([2]; 28-day treatment period)?
Answer: –5.7 (–17.9, 6.6); p=0.354%

Question: What about the “COPD Assessment Test total score, adjusted mean difference CHF6523 vs placebo (95% CI)” value ([2]; Day 28) of the same molecule?
Answer: 0.6 (–0.7, 2.0); p=0.340

Question: What about the “Time of peak of mean plasma concentration” value ([3]; Day 1) of the same molecule?
Answer: 15 min

Question: What about the median tmax ([3]; Day 1) of the same molecule?
Answer: 15 min

Question: And the median tmax ([3]; Day 28)?
Answer: 11 min

Question: What about the “Time of peak of mean plasma concentration” value ([3]; Day 28 (first post-dose timepoint)) of the same molecule?
Answer: 10 min

Question: What about the “AUC0–30 min” value ([3]; plasma, Day 1, mean (SD)) of the same molecule?
Answer: 3.28 (1.64) ng.h/mL

Question: What about the “AUC0–12 h” value ([3]; plasma, Day 1, mean (SD)) of the same molecule?
Answer: 8.10 (4.11) ng.h/mL

Question: What about the Cmax ([3]; plasma, Day 1, mean (SD)) of the same molecule?
Answer: 9.10 (4.42) ng/mL

Question: And the tmax ([3]; plasma, Day 1, median (range))?
Answer: 0.25 (0.15–2.00) h

Question: What about the Ctrough ([3]; plasma, Day 20 pre-dose, mean (SD)) of the same molecule?
Answer: 0.10 (0.05) ng/mL

Question: And the Ctrough ([3]; plasma, Day 24 pre-dose, mean (SD))?
Answer: 0.09 (0.06) ng/mL

Question: And the “AUC0–30 min” value ([3]; plasma, Day 28, mean (SD))?
Answer: 4.21 (2.05) ng.h/mL

Question: And the “AUC0–12 h” value ([3]; plasma, Day 28, mean (SD))?
Answer: 10.50 (5.32) ng.h/mL

Question: And the Cmax ([3]; plasma, Day 28, mean (SD))?
Answer: 11.70 (5.54) ng/mL

Question: And the “CL/Fss (apparent total body clearance at steady state)” value ([3]; plasma, Day 28, dose/AUC 0-12 h, mean (SD))?
Answer: 239 (119) L/h

Question: What about the Cav ([3]; plasma, Day 28, mean (SD)) of the same molecule?
Answer: 0.88 (0.45) ng/mL

Question: And the Cmin ([3]; plasma, Day 28, mean (SD))?
Answer: 0.09 (0.03) ng/mL

Question: And the tmax ([3]; plasma, Day 28, median (range))?
Answer: 0.18 (0.15–0.27) h

Question: And the tmin ([3]; plasma, Day 28, median (range))?
Answer: 11.92 (8.13–12.17) h

Question: And the Ctrough ([3]; plasma, Day 28 pre-dose, mean (SD))?
Answer: 0.09 (0.06) ng/mL

Question: What about the “Sputum PIP3 adjusted geometric mean fold change from baseline [95% CI]” value ([4]; Day 20) of the same molecule?
Answer: 0.703 [95% CI 0.606, 0.814]

Question: And the “Decrease from baseline in sputum PIP3 levels” value ([4]; Day 20, 2 mg twice daily inhaled)?
Answer: 29.7%

Question: What about the “Sputum PIP3 adjusted ratio CHF6523 vs placebo [95% CI]” value ([4]; Day 20, p = 0.001) of the same molecule?
Answer: 0.705 [0.580, 0.856]

Question: And the “Sputum PIP3 difference between groups (reduction vs. placebo)” value ([4]; Day 20, p = 0.001)?
Answer: 29.5%

Question: What about the “Change from baseline in pre-dose FEV1: CHF6523–placebo difference (95% CI)” value ([5]; Day 20) of the same molecule?
Answer: −79 (−149, −9) mL

Question: What about the “Change from baseline in pre-dose FVC: CHF6523–placebo difference (95% CI)” value ([5]; Day 20) of the same molecule?
Answer: −38 (−191, 116) mL

Question: And the “Change from baseline in pre-dose FEV1: CHF6523–placebo difference (95% CI)” value ([5]; Day 24)?
Answer: −79 (−141, −17) mL

Question: And the “Change from baseline in pre-dose FVC: CHF6523–placebo difference (95% CI)” value ([5]; Day 24)?
Answer: −25 (−170, 120) mL

Question: And the “Change from baseline in pre-dose FEV1: CHF6523–placebo difference (95% CI)” value ([5]; Day 28)?
Answer: −146 (−242, −50) mL
